Legend:
Assay type in all cases: biochemical
[1] = Catalase (CAT) assay: removal of hydrogen peroxide, HRP/ABTS read-out; conditions: amount of hydrogen peroxide removed per minute, per mmol of compound; 0.05M Tris HCl pH 7.4, 25° C., 60 mins
Text: This method measures catalase activity as the ability to remove hydrogen peroxide from solution in the absence of hydrogen donors over one hour. After this time any remaining peroxide was removed by introduction to the mixture of high concentrations of horseradish peroxidase and the hydrogen donor 2,2′-azino-di-[3-ethyl-benzothiazoline-(6)-sulphonic acid (ABTS). This rapid reaction produces peroxide-concentration-dependant product with a maximal absorbance at 405 nm.
(§1) The assays for compound antioxidant activity were carried out in 96-well microtitre plates using a DIAS modular assay robot instrument (Dynatech Ltd.) Compounds were solublised in DMF at 10 mM. DMF concentrations in the assay never exceeded 1%, were tolerated and were controlled for in assay plates.
Hydrogen peroxide (Sigma H1009) 100 mM was incubated with various concentrations of compound in 0.05M Tris HCI pH 7.4 at 25° C. for 60 mins. […] Plates were then read for absorbance at 405 nm. A standard curve for absorbance against known hydrogen peroxide concentration was constructed. Absorbance data for wells containing compound were interpolated against this curve using the software tools Excel (Microsoft Corp.) and Xlfit (ID Business Solutions). […]
The catalase assay procedure described above provides certain advantages over previously described assays. […] The oxidation of ABTS results in a colour change which can be measured. […]

[2] = Peroxidase (POD) assay: hydrogen peroxide removal with hydrogen donor ABTS; conditions: ABTS 3 mM, 0.05M Tris HCl pH 7.4, 25° C., 2 minutes, interpolated against horseradish peroxidase standard curve
Description: This method measures the ability of the compounds to remove hydrogen peroxide in the presence of the hydrogen donor 2,2′-azino-di-[3-ethyl-benzothiazoline-(6)-sulphonic acid (ABTS) (Galati, H., J. Clin. Chem. Clin. Biochem. (1979) 17, 1-7).
as §1
ABTS (Sigma A-1888) 3 mM was incubated with various concentrations of compound in 0.05M Tris HCI pH 7.4 at 25° C. A range of standard concentrations of horseradish peroxidase (Sigma P-6140) were included on each microtitre plate. Hydrogen peroxide (Sigma H1009) 100 mM was added and the plate incubated at 25° C. for 2 minutes. Absorbance at 405 nm was measured and the rates of ABTS […] calculated. A standard curve was constructed using data from wells containing known concentrations of peroxidase. Data for wells containing compound were interpolated against this curve using the software tools Excel (Microsoft Corp.) and Xlfit (ID Business Solutions). Estimations of peroxidase activity were given as International Units of peroxidase activity/mmol compound.

[3] = Superoxide dismutase (SOD) assay: xanthene oxidase/hypoxanthene, XTT reduction; conditions: SOD activity from IC50 of XTT reduction (one International Unit), normalised; 0.05M Tris/HCl pH 7.4, 25° C.
Description: This method is adapted from what has become the standard method for the measurement of SOD activity (McCord J. M., Fridovich, I., J. Biol. Chem. 244, 6049-6055, 1969). Briefly, a steady-state production of superoxide anion was maintained by the action of xanthene oxidase (XO) on hypoxanthene (HX) at physiological pH. Presence of the anion was measured by the reduction of XTT (3′-{1-(phenylamino)-carbonyl]-3,4-tetrazolium]-bis(4-methoxy-6-nitro)benzsulphonic acid to a water-soluble product with an absorbance maximum at ˜470 nm. Hypoxanthene concentrations were titrated so as to give a steady-state rate of XTT reduction of 0.025 Optical Density Units (OD) per minute at 25° C.
as §1
Xanthene oxidase (Sigma X1875) 0.01 U/ml and XTT (Sigma X4251), 0.5 mM and hypoxanthene (Sigma H9377), typically at […], were incubated in the presence of various doses of compounds at 25° C. in 0.05M Tris/HCI pH 7.4. Rates of XTT reduction were measured over 5 minutes at 490 nm. Dose-response curves were constructed for inhibition by the compound of control rates of XTT reduction. […]

Question: With `CCCCCCc1cccc2c1[O][Mn]([O]C(C)=O)[O]c1c(CCCCCC)cccc1-c1cccc(n1)-c1cccc-2n1` [Example 18, 6,6′-bis(3-Hexyl-2-hydroxyphenyl)-2,2′-bipyridine-manganese(III)acetate] as the compound, how does the CAT [1] read?
Answer: The CAT was 0.0083.

Question: What about the POD [2] of the same compound?
Answer: Its POD is 209.92 International Units of peroxidase activity/mmol compound.

Question: What about the SOD [3] of the same compound?
Answer: Its SOD is 41.43 U/mmol compound.
